Two molecules from publication PMC9514063 (Protein Science : A Publication of the Protein Society, 2022) can be followed below.

For this experiment, the target named is proBFT-3 (Bacteroides fragilis, UniProt O86049). Put plainly: isothermal titration calorimetry. The class given is binding.
proBFT-3, sequence (O86049 18-397 limits assumed): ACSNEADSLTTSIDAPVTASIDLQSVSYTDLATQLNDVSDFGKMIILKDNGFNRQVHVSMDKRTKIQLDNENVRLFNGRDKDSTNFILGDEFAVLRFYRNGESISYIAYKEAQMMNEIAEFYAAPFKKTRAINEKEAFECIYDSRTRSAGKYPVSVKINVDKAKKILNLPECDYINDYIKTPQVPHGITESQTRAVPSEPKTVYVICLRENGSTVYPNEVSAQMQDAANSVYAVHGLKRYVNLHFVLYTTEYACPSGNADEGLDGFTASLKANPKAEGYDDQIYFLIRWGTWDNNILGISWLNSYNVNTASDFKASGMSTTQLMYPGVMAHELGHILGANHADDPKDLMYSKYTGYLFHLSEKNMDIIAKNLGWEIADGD

As for `C[C@@H]1CCc2cc(F)cc3c(=O)c(C(=O)O)cn1c23` [C-4, flumequine], the dissociation constant Kd is 20 µM.

`COc1ccc([C@@H]2CC(=O)c3c(O)cc(O)cc3O2)cc1O` [C-10, hesperetin]: binding was put at a Kd of 22 µM.
